# Assay results as given in publication PMC7413254 (Nature Communications, 2020).
# Assays:
# non-expressing oocytes [1] = experiment: cells; type: cell-based, Xenopus laevis; conditions: non-expressing oocytes, total [3H]CQ transport, normalised to the oocyte type control
# Summary of the method: (§1)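 Washed oocytes (ten per treatment) were exposed to label in pH 5.5 ND96 for 1.5 h at 27.5 °C. Buffer was then removed, cells rinsed in ice-cold ND96, lysed in SDS and counted.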
# PfCRT^Ecu1110 [2] = biological target: T1, PfCRT^Ecu1110 (Plasmodium falciparum, UniProt Q9N623, A220S/I356L/K76T/N326D); experiment: [3H]CQ uptake into Xenopus oocytes, cis-inhibition by unlabelled solute; type: cell-based; conditions: for Uptake of [3H]CQ (% PfCRTEcu1110 control), cis-inhibition / PfCRT-mediated [3H]CQ transport, cis-inhibition (% PfCRTEcu1110 control): PfCRTEcu1110 oocytes; for Uptake of [3H]CQ (% PfCRTEcu1110 control), cis-inhibition: total [3H]CQ transport, normalised to the oocyte type control; for PfCRT-mediated [3H]CQ transport, cis-inhibition (% PfCRTEcu1110 control): background [3H]CQ accumulation subtracted, normalised to oocyte type control; for [3H]CQ transport (% PfCRTEcu1110 control), cis-inhibition, PfCRTEcu1110: PfCRT-mediated component (background subtracted), sheet title says normalised to PfCRTDd2 control, mean ± SEM, SEM
# T1 sequence (Q9N623 whole entry A220S/I356L/K76T/N326D): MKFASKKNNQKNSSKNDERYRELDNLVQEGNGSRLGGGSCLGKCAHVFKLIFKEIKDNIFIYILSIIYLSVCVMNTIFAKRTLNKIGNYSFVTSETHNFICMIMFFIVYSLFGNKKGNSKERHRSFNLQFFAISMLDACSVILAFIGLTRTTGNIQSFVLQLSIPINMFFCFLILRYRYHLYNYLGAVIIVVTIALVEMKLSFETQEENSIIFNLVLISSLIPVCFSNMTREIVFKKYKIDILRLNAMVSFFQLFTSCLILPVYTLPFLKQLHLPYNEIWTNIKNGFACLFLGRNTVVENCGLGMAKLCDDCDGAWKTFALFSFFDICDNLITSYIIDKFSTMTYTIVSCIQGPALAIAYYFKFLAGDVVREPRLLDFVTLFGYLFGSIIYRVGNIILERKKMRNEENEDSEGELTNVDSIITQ
# Summary of the method: as §1
# PfCRT^Dd2 [3] = biological target: T2, PfCRT^Dd2 (Plasmodium falciparum, UniProt Q9N623, A220S/I356T/K76T/M74I/N326S/N75E/Q271E/R371I); experiment: as above; type: cell-based; conditions: PfCRTDd2 oocytes, background [3H]CQ accumulation subtracted, normalised to oocyte type control
# T2 sequence (Q9N623 whole entry A220S/I356T/K76T/M74I/N326S/N75E/Q271E/R371I): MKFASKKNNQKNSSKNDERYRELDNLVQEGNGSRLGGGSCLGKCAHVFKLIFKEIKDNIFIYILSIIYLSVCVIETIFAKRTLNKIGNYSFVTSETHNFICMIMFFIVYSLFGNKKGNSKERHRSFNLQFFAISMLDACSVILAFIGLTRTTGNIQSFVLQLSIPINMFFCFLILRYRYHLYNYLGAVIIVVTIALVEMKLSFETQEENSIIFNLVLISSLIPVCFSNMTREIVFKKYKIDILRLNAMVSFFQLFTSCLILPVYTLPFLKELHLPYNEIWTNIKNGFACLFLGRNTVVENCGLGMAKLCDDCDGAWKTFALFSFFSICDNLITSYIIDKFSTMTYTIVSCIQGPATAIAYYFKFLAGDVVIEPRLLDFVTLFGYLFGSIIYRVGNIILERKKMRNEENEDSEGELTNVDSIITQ
# Summary of the method: as §1
# non-expressing oocytes [4] = type: cell-based, Xenopus laevis; conditions: non-expressing oocytes; [test solute]i = 45 mM (30 mM for some solutes due to solubility); total [3H]CQ transport, normalised to the oocyte type control
# Summary of the method: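 Oocytes (ten per treatment, ≥4 independent frogs/days) were preloaded by injecting VF-6 in 25 nL ND96 at pH 5.0, 5.5, 6.0 or 7.0, or Na^+-free choline buffer, then uptake run 1.5 h, 27.5 °C, ND96 pH 5.5 by default. Internal concentrations assumed ~400 nL oocyte volume.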
# PfCRT^3D7 [5] = biological target: T3, PfCRT^3D7 (Plasmodium falciparum, UniProt Q8IBZ9); experiment: cell-based; type: cell-based; conditions: PfCRT3D7 oocytes; for Uptake of [3H]CQ (% PfCRT3D7 control), trans-stimulation: total [3H]CQ transport, normalised to the oocyte type control; for PfCRT-mediated [3H]CQ transport, trans-stimulation (% PfCRT3D7 control): normalised to oocyte type control
# T3 sequence (Q8IBZ9 59-398): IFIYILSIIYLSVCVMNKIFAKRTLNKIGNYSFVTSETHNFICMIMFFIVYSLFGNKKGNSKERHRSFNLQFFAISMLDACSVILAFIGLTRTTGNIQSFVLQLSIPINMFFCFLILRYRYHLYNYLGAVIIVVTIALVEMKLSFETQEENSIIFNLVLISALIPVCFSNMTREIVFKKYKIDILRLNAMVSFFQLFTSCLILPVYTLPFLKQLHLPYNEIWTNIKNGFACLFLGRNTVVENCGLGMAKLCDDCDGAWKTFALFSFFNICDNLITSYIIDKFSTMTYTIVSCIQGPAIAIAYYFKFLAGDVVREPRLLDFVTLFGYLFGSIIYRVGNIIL
# Summary of the method: (§2)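 Transport measured in Xenopus oocytes expressing the transporters, 1.5 h at 27.5 °C in ND96 pH 5.5 unless noted. For trans-stimulation, VF-6 injected in 25 nL ND96 at pH 5.0–7.0 or Na^+-free (choline) buffer; intracellular levels based on ~400 nL oocyte volume. Ten oocytes per treatment, ≥4 experiments.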
# PfCRT^Ecu1110 [6] = biological target: T1, PfCRT^Ecu1110; experiment: cell-based; type: cell-based; conditions: for Uptake of [3H]CQ (% PfCRTEcu1110 control), trans-stimulation / PfCRT-mediated [3H]CQ transport, trans-stimulation (% PfCRTEcu1110 control): PfCRTEcu1110 oocytes; for Uptake of [3H]CQ (% PfCRTEcu1110 control), trans-stimulation: total [3H]CQ transport, normalised to the oocyte type control; for PfCRT-mediated [3H]CQ transport, trans-stimulation (% PfCRTEcu1110 control): normalised to oocyte type control; for [3H]CQ transport (% PfCRTDd2 control), trans-stimulation, PfCRTEcu1110: PfCRT-mediated component (background subtracted), sheet title says normalised to PfCRTDd2 control, mean ± SEM, SEM
# Summary of the method: as §2
# PfCRT^Dd2 [7] = biological target: T2, PfCRT^Dd2; experiment: cell-based; type: cell-based; conditions: for Uptake of [3H]CQ (% PfCRTDd2 control), trans-stimulation / PfCRT-mediated [3H]CQ transport, trans-stimulation (% PfCRTDd2 control): PfCRTDd2 oocytes; for Uptake of [3H]CQ (% PfCRTDd2 control), trans-stimulation: total [3H]CQ transport, normalised to the oocyte type control; for PfCRT-mediated [3H]CQ transport, trans-stimulation (% PfCRTDd2 control): normalised to oocyte type control; for [3H]CQ transport (% PfCRTDd2 control), trans-stimulation, PfCRTDd2: PfCRT-mediated component (background subtracted), mean ± SEM, SEM
# Summary of the method: as §2
# PfNT1 = biological target: T4, PfNT1 (Plasmodium falciparum, UniProt Q8IDM6); experiment: cell-based; type: cell-based; conditions: PfNT1 oocytes, total [3H]CQ transport, normalised to the oocyte type control
# T4 construct: expressed in transfected cells; host or cells: Xenopus laevis oocytes (stage V-VI), cRNA-injected
# T4 sequence (Q8IDM6 whole entry): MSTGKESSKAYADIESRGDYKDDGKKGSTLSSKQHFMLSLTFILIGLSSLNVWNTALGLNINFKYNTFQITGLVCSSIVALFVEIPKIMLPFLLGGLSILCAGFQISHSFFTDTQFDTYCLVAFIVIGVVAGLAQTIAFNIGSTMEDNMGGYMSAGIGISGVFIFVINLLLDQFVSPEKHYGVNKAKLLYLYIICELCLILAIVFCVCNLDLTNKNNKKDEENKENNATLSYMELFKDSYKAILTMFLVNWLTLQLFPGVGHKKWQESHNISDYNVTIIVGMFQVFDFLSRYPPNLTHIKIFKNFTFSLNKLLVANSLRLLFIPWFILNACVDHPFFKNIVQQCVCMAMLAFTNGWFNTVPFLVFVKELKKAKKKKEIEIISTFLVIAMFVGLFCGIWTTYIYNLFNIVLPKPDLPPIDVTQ
# Summary of the method: as §2
# PfCRT^3D7 [8] = biological target: T3, PfCRT^3D7; experiment: cell-based; type: cell-based; conditions: PfCRT3D7 oocytes, total [3H]CQ transport, normalised to the oocyte type control
# Summary of the method: as §1
# [9] = [test solute]i = 45 mM (30 mM for some solutes due to solubility)
# [10] = [test solute]i = 5 mM (intracellular)
# [11] = [test solute]i = 45 mM (intracellular; 30 mM for some solutes due to solubility)
# [12] = [test solute]i = 5 mM (injected)
substance,measurement,setting,value
PVQA [PA-4],"Uptake of [3H]CQ (% non-expressing oocyte control), cis-inhibition",non-expressing oocytes [1]; [test solute] = 0.5 mM,98 ± 3.0 % non-expressing oocyte control
same,"Uptake of [3H]CQ (% non-expressing oocyte control), cis-inhibition",non-expressing oocytes [1]; [test solute] = 1 mM,100 ± 4.7 % non-expressing oocyte control
same,"Uptake of [3H]CQ (% non-expressing oocyte control), cis-inhibition",non-expressing oocytes [1]; [test solute] = 2 mM,98 ± 3.9 % non-expressing oocyte control
same,"Uptake of [3H]CQ (% PfCRTEcu1110 control), cis-inhibition",PfCRT^Ecu1110 [2]; [test solute] = 0.5 mM,65 ± 2.9 % PfCRTEcu1110 control
same,"Uptake of [3H]CQ (% PfCRTEcu1110 control), cis-inhibition",PfCRT^Ecu1110 [2]; [test solute] = 1 mM,59 ± 3.6 % PfCRTEcu1110 control
same,"Uptake of [3H]CQ (% PfCRTEcu1110 control), cis-inhibition",PfCRT^Ecu1110 [2]; [test solute] = 2 mM,43 ± 2.5 % PfCRTEcu1110 control
same,"PfCRT-mediated [3H]CQ transport, cis-inhibition (% PfCRTEcu1110 control)",PfCRT^Ecu1110 [2]; [test solute] = 0.5 mM,61 ± 0.4 % PfCRTEcu1110 control
same,"PfCRT-mediated [3H]CQ transport, cis-inhibition (% PfCRTEcu1110 control)",PfCRT^Ecu1110 [2]; [test solute] = 1 mM,52 ± 2.6 % PfCRTEcu1110 control
same,"PfCRT-mediated [3H]CQ transport, cis-inhibition (% PfCRTEcu1110 control)",PfCRT^Ecu1110 [2]; [test solute] = 2 mM,39 ± 2.1 % PfCRTEcu1110 control
same,"[3H]CQ transport (% PfCRTEcu1110 control), cis-inhibition, PfCRTEcu1110",PfCRT^Ecu1110 [2]; [test solute] = 1 mM,16 ± 0.1 % PfCRTEcu1110 control
same,"[3H]CQ transport (% PfCRTEcu1110 control), cis-inhibition, PfCRTEcu1110",PfCRT^Ecu1110 [2]; [test solute] = 2 mM,12 ± 0.2 % PfCRTEcu1110 control
same,"PfCRT-mediated [3H]CQ transport, cis-inhibition (% PfCRTDd2 control)",PfCRT^Dd2 [3]; [test solute] = 0.5 mM,51 ± 3.0 % PfCRTDd2 control
same,"PfCRT-mediated [3H]CQ transport, cis-inhibition (% PfCRTDd2 control)",PfCRT^Dd2 [3]; [test solute] = 1 mM,41 ± 2.9 % PfCRTDd2 control
same,"PfCRT-mediated [3H]CQ transport, cis-inhibition (% PfCRTDd2 control)",PfCRT^Dd2 [3]; [test solute] = 2 mM,31 ± 1.2 % PfCRTDd2 control
same,"Uptake of [3H]CQ (% non-expressing oocyte control), trans-stimulation",non-expressing oocytes [4],100 ± 2.6 % non-expressing oocyte control
same,"Uptake of [3H]CQ (% PfCRT3D7 control), trans-stimulation",PfCRT^3D7 [5]; [test solute]i = 5 mM,130 ± 4.2 % PfCRT3D7 control
same,"Uptake of [3H]CQ (% PfCRT3D7 control), trans-stimulation",PfCRT^3D7 [5]; [9],149 ± 5.8 % PfCRT3D7 control
same,"PfCRT-mediated [3H]CQ transport, trans-stimulation (% PfCRT3D7 control)",PfCRT^3D7 [5]; [10],124 ± 3.2 % PfCRT3D7 control
same,"PfCRT-mediated [3H]CQ transport, trans-stimulation (% PfCRT3D7 control)",PfCRT^3D7 [5]; [11],141 ± 4.0 % PfCRT3D7 control
same,"Uptake of [3H]CQ (% PfCRTEcu1110 control), trans-stimulation",PfCRT^Ecu1110 [6]; [test solute]i = 5 mM,122 ± 3.0 % PfCRTEcu1110 control
same,"Uptake of [3H]CQ (% PfCRTEcu1110 control), trans-stimulation",PfCRT^Ecu1110 [6]; [9],133 ± 3.5 % PfCRTEcu1110 control
same,"PfCRT-mediated [3H]CQ transport, trans-stimulation (% PfCRTEcu1110 control)",PfCRT^Ecu1110 [6]; [10],117 ± 2.4 % PfCRTEcu1110 control
same,"PfCRT-mediated [3H]CQ transport, trans-stimulation (% PfCRTEcu1110 control)",PfCRT^Ecu1110 [6]; [11],127 ± 1.9 % PfCRTEcu1110 control
same,"[3H]CQ transport (% PfCRTDd2 control), trans-stimulation, PfCRTEcu1110",PfCRT^Ecu1110 [6]; [12],35 ± 1.3 % PfCRTEcu1110 control
same,"[3H]CQ transport (% PfCRTDd2 control), trans-stimulation, PfCRTEcu1110",PfCRT^Ecu1110 [6]; [9],38 ± 1.1 % PfCRTEcu1110 control
same,"Uptake of [3H]CQ (% PfCRTDd2 control), trans-stimulation",PfCRT^Dd2 [7]; [test solute]i = 5 mM,98 ± 2.2 % PfCRTDd2 control
same,"Uptake of [3H]CQ (% PfCRTDd2 control), trans-stimulation",PfCRT^Dd2 [7]; [9],115 ± 1.1 % PfCRTDd2 control
same,"PfCRT-mediated [3H]CQ transport, trans-stimulation (% PfCRTDd2 control)",PfCRT^Dd2 [7]; [10],96 ± 3.2 % PfCRTDd2 control
same,"PfCRT-mediated [3H]CQ transport, trans-stimulation (% PfCRTDd2 control)",PfCRT^Dd2 [7]; [11],110 ± 0.9 % PfCRTDd2 control
same,"[3H]CQ transport (% PfCRTDd2 control), trans-stimulation, PfCRTDd2",PfCRT^Dd2 [7]; [12],96 ± 3.2 % PfCRTDd2 control
same,"[3H]CQ transport (% PfCRTDd2 control), trans-stimulation, PfCRTDd2",PfCRT^Dd2 [7]; [9],110 ± 0.9 % PfCRTDd2 control
same,"Uptake of [3H]CQ (% PfNT1 control), trans-stimulation",PfNT1; [test solute]i = 5 mM,96 ± 3.5 % PfNT1 control
same,"Uptake of [3H]CQ (% PfNT1 control), trans-stimulation",PfNT1; [9],98 ± 3.4 % PfNT1 control
same,"Uptake of [3H]CQ (% PfCRT3D7 control), cis-inhibition",PfCRT^3D7 [8]; [test solute] = 0.5 mM,99 ± 5.3 % PfCRT3D7 control
same,"Uptake of [3H]CQ (% PfCRT3D7 control), cis-inhibition",PfCRT^3D7 [8]; [test solute] = 1 mM,99 ± 4.8 % PfCRT3D7 control
same,"Uptake of [3H]CQ (% PfCRT3D7 control), cis-inhibition",PfCRT^3D7 [8]; [test solute] = 2 mM,99 ± 5.7 % PfCRT3D7 control
